Values quoted from earlier work, collected in patent US20260020560A1, “AG[…] DIHYDROJASMONATE COMPOSITIONS” (priority 2022, published 2026).

Compound | pKa at 25° C.
O=S(=O)(O)CC(O)CNC(CO)(CO)CO (centres unmarked) [TAPSO, 3-[N-tris(hydroxymethyl)methyl-amino]-2-hydroxypropanesulfonic acid] | 7.635
O=S(=O)(O)CCN1CCN(CCO)CC1 [HEPES, 4-(2-hydroxyethyl)-1-piperazineethanesulfonic acid] | 7.48
